According to patent publication EP2261259B1, “Immunoassay for N-(3-chlorophenyl)piperazine-based anti-depressants” (Randox Laboratories Ltd., priority 2009, dated 2010):
≈ marks a conversion by molar mass, not a printed value.

Test system: antibody of the invention
Test: Competitive ELISA (antibody-coated microtitre plate, hapten-HRP conjugate, TMB, absorbance at 450 nm)
Type: binding, sheep
Settings: for %CR: percentage cross-reactivity based on 100% specificity to nefazodone; for %B/B0: B0 = absorbance at 0 ng/ml; for A450: absorbance at 450 nm; for IC50: standard concentration which produces 50% B/B0
Method: The process of developing an immunoassay is well known to the person skilled in the art. […] The serum from the immunised animal is collected when the antibody titre is sufficiently high. A conjugate is added to a sample containing the target analyte and the raised antibodies, and the conjugate and analyte compete for binding to the antibodies. The process may comprise fixing said serum antibodies to a backing substrate such as a polystyrene solid support or a biochip. The antibodies can be polyclonal or monoclonal. The signal emitted in the immunoassay is proportionate to the amount of conjugate bound to the antibodies which in turn is inversely proportionate to the analyte concentration. The signal can be detected or quantified by comparison with a calibrator.
The resulting immunogens were administered separately to adult sheep on a monthly basis to provide target-specific polyclonal antisera. IgG was extracted from the antisera via Caprylic acid/ammonium sulphate precipitation of immunoglobulin. Microtitre plates (Thermo Scientific, 95029180) were coated with antibody (125µl) in coating buffer (10mM Tris pH 8.5) at 37°C for 2 hours. Antibody was coated at 2.5µg/ml. The plates were then washed. […] The plates were then washed and 125µl of TMB (Randox, 4380-15) was added to each well and left at room temperature for 20mins in the dark. The reaction was stopped using 125µl of 0.2M sulphuric acid. The absorbancies were read at 450nm with an ELISA microplate reader (BIO-TEK Instruments, EL340) and the means calculated. Antibody specificity and sensitivity were then determined

[1] = standard concentration 0.156 ng/ml
[2] = standard concentration 0.313 ng/ml
[3] = standard concentration 0.625 ng/ml
[4] = standard concentration 1.250 ng/ml
[5] = standard concentration 2.500 ng/ml
[6] = standard concentration 5.000 ng/ml
[7] = standard concentration 10.000 ng/ml

SMILES: CCc1nn(CCCN2CCN(c3cccc(Cl)c3)CC2)c(=O)n1CCOc1ccccc1 [Nefazodone, 2-{3-[4-(3-chlorophenyl)-1-piperazinyl]propyl}-5-ethyl-4-(2-phenoxyethyl)-1,2,4-triazol-3-one]
- %CR: 100%
- %B/B0 [1]: 91%
- A450 [1]: 1.850
- %B/B0 [2]: 83%
- A450 [2]: 1.671
- %B/B0 [3]: 73%
- A450 [3]: 1.467
- %B/B0 [4]: 58%
- A450 [4]: 1.168
- %B/B0 [5]: 46%
- A450 [5]: 0.923
- %B/B0 [6]: 34%
- A450 [6]: 0.683
- %B/B0 [7]: 24%
- A450 [7]: 0.494
- IC50: 3.901 ng/mL (≈ 0.0083 µM)

SMILES: O=c1n(CCCN2CCN(c3cccc(Cl)c3)CC2)nc2ccccn12 [Trazodone, 2-{3-[4-(3-chlorophenyl)-1-piperazinyl]propyl}-[1,2,4]triazolo[4,3-a]pyridin-3(2H)-one]
- %CR: 733%
- %B/B0 [1]: 67%
- A450 [1]: 1.456
- %B/B0 [2]: 58%
- A450 [2]: 1.271
- %B/B0 [3]: 48%
- A450 [3]: 1.041
- %B/B0 [4]: 35%
- A450 [4]: 0.763
- %B/B0 [5]: 25%
- A450 [5]: 0.551
- %B/B0 [6]: 18%
- A450 [6]: 0.398
- %B/B0 [7]: 13%
- A450 [7]: 0.287

SMILES: Clc1cccc(N2CCNCC2)c1 [mCPP, N-(3-chlorophenyl)piperazine]
- %CR: 46%
- %B/B0 [1]: 85%
- A450 [1]: 1.821
- %B/B0 [2]: 79%
- A450 [2]: 1.679
- %B/B0 [3]: 72%
- A450 [3]: 1.534
- %B/B0 [4]: 65%
- A450 [4]: 1.380
- %B/B0 [5]: 55%
- A450 [5]: 1.183
- %B/B0 [6]: 48%
- A450 [6]: 1.027
- %B/B0 [7]: 42%
- A450 [7]: 0.888
- IC50: 8.476 ng/mL (≈ 0.0431 µM)
